Measured values from patent US20250213478A1, “CATIONIC LIPID HAVING DISULFIDE BOND, LIPID MEMBRANE STRUCTURE INCLUDING SAME, NUCLEIC ACID INTRODUCTION AGENT AND PHARMACEUTICAL COMPOSITION CONTAINING ANY ONE OF SAME, METHOD FOR INTRODUCING NUCLEIC ACID INTO CELL OR TARGET CELL, AND METHOD FOR PRODUCING CELLULAR PHARMACEUTICAL” (NOF Corporation, priority 2022, published 2025).

How the values were obtained:
[1] = Measurement of Liposomal pKa of LNP (TNS fluorescence); type: physicochemical; settings: LNP without nucleic acid, cationic lipid:DOPC:Chol=52.5:7.5:40 + about 1.5 mol DMG-PEG2k; pH at which relative TNS fluorescence intensity was 50%
Procedure, shortened: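 Nucleic-acid-free LNPs (cationic lipid:DOPC:Chol 52.5:7.5:40, ~1.5 mol DMG-PEG2k) prepared by microfluidic mixing, diluted to 0.5 mM lipid, mixed with TNS in 150 mM NaCl buffers spanning pH 3.0–10.0. Fluorescence at ex 321/em 447 nm normalised 0–100% per LNP; pKa is the pH at 50%.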

[2] = system: BALB/c mouse; assay: Evaluation of in vivo gene expression (luciferase mRNA-encapsulating LNP, IVIS of isolated organs); settings: for relative value based on Comparative Example (amount of luminescence in spleen): relative to O-Ph-P4C2 LNP = 1.00; for amount of luminescence in each organ: heart / amount of luminescence in each organ: kidney / amount of luminescence in each organ: liver / amount of luminescence in each organ: lung / amount of luminescence in each organ: spleen: tail vein, mRNA 0.05 mg/kg, 4.5 hr + 15 min after administration; for amount of luminescence in each organ: spleen: spleen (Table 7); for gene expression activity in the spleen compared to Comparative Example: result in words
Procedure, shortened: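 Luciferase mRNA in LNP (cationic lipid:DOPC:Chol:DMG-PEG2k = 55:5:40:1 molar) given by tail vein to male 5-week-old BALB/c mice at 0.05 mg mRNA/kg. At 4.5 hr, D-luciferin (3 mg/mouse) was given intraperitoneally; 15 min later liver, spleen, kidney, heart and lung were excised and luminescence (photons/sec) quantified by IVIS imaging.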

[3] = Particle size, PdI and zeta potential of mRNA-encapsulating LNPs (dynamic light scattering); type: physicochemical; settings: mRNA-encapsulating LNP, cationic lipid:DOPC:Chol=55:5:40 + about 1 mol DMG-PEG2k; for PdI / particle size: dynamic light scattering; for zeta potential: physiological pH
Procedure, shortened: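 LNPs were made from cationic lipid:DOPC:Chol at 55:5:40 molar ratio plus about 1 mol DMG-PEG2k, microfluidically mixed with mRNA in malate buffer (20 mM, pH 3.0, 30 mM NaCl). They were ultrafiltered into PBS at 2 mM lipid. Size, PdI and zeta potential were measured by dynamic light scattering.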

[4] = system: HeLa cells; assay: Evaluation of in vitro gene expression in HeLa cell (luciferase mRNA-encapsulating LNP); type: cell-based, human; settings: for cumulative luciferase luminescence intensity over 24 hr: luciferase mRNA 0.4 μg per dish, LNP cationic lipid:DOPC:Chol:DMG-PEG2k=55:5:40:1; for gene expression activity compared to Comparative Example: result in words
Procedure, shortened: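 LNP (cationic lipid:DOPC:Chol:DMG-PEG2k=55:5:40:1) carrying luciferase mRNA, 0.4 μg mRNA per 3.5 cm dish, added to HeLa cells in D-MEM with 0.1 mM D-luciferin. Luminescence read 2 min every hour in an incubator luminometer; value is cumulative luminescence over 24 hr.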

Row | Compound | pKa [1] | relative value based on Comparative Example (amount of luminescence in spleen) [2] | amount of luminescence in each organ: heart [2] | amount of luminescence in each organ: kidney [2] | amount of luminescence in each organ: liver [2] | amount of luminescence in each organ: lung [2] | amount of luminescence in each organ: spleen [2] | PdI [3] | particle size [3] | zeta potential [3] | cumulative luciferase luminescence intensity over 24 hr [4] | gene expression activity compared to Comparative Example [4] | gene expression activity in the spleen compared to Comparative Example [2]
1 | CCCCCCCCCCCCCCCCC(CCCCCCCCCCCCCCCC)C(=O)Oc1ccc(CC(=O)OCCSSCCOC(=O)NCCCCN(C)C)cc1 [Example 25] | 8.6 | 0.03 | 4.74E+05 photons/sec | 3.63E+05 photons/sec | 1.67E+05 photons/sec | 2.74E+05 photons/sec | 3.07E+05 photons/sec | 0.126 | 78 nm | 14.7 mV | 1.25E+07 RLU | superior gene expression activity | 
2 | CCCCCCCCCCCCCCCCC(CCCCCCCCCCCCCCCC)C(=O)Oc1ccc(CC(=O)OCCSSCCOC(=O)NCCN(C(C)C)C(C)C)cc1 [Example 28] | 6.7 | 0.16 | 6.88E+05 photons/sec | 6.48E+05 photons/sec | 9.90E+07 photons/sec | 9.12E+05 photons/sec | 1.68E+06 photons/sec | 0.070 | 66 nm | −1.4 mV | 4.57E+07 RLU | superior gene expression activity | 
3 | CCCCCCCCCCCCCCCCC(CCCCCCCCCCCCCCCC)C(=O)Oc1ccc(CC(=O)OCCSSCCOC(=O)N(C)CCN(CC)CC)cc1 [Example 29] | 6.7 | 0.29 | 7.27E+05 photons/sec | 6.29E+05 photons/sec | 8.05E+07 photons/sec | 7.49E+05 photons/sec | 3.16E+06 photons/sec | 0.080 | 59 nm | 1.2 mV | 1.75E+07 RLU | superior gene expression activity | 
4 | CCCCCCCCCCCCCCCCC(CCCCCCCCCCCCCCCC)C(=O)Oc1ccc(CC(=O)OCCSSCCOC(=O)OCCN(C)C)cc1 [Example 30] | 6.4 | 0.12 | 6.17E+05 photons/sec | 3.80E+05 photons/sec | 1.98E+07 photons/sec | 5.26E+05 photons/sec | 1.24E+06 photons/sec | 0.080 | 59 nm | 2.3 mV | 1.35E+07 RLU | superior gene expression activity | 
5 | CCCCCCCCCCCCCC(=O)OCC(C)(COC(=O)CCCCCCCCCCCCC)C(=O)Oc1ccc(CC(=O)OCCSSCCOC(=O)NCCN(CC)CC)cc1 [Example 31] | 7.6 | 1.74 | 7.26E+05 photons/sec | 5.53E+05 photons/sec | 2.62E+07 photons/sec | 9.16E+05 photons/sec | 1.88E+07 photons/sec | 0.072 | 59 nm | 4.1 mV | 1.58E+08 RLU | superior gene expression activity | superior gene expression activity
6 | CCCCCCCC/C=C\CCCCCCCC(=O)OCC(C)(COC(=O)CCCCCCC/C=C\CCCCCCCC)C(=O)Oc1ccc(CC(=O)OCCSSCCOC(=O)NCCN(CC)CC)cc1 [Example 34] | 7.2 | 1.27 | 6.83E+05 photons/sec | 5.04E+05 photons/sec | 2.52E+07 photons/sec | 6.02E+05 photons/sec | 1.37E+07 photons/sec | 0.060 | 63 nm | 0.4 mV | 1.08E+08 RLU | superior gene expression activity | superior gene expression activity
7 | CCCCC/C=C\C/C=C\CCCCCCCC(=O)OCC(C)(COC(=O)CCCCCCC/C=C\C/C=C\CCCCC)C(=O)Oc1ccc(CC(=O)OCCSSCCOC(=O)NCCN(CC)CC)cc1 [Example 35] | 6.8 | 0.37 | 6.31E+05 photons/sec | 3.94E+05 photons/sec | 1.35E+07 photons/sec | 4.65E+05 photons/sec | 4.03E+06 photons/sec | 0.068 | 70 nm | −4.0 mV | 6.34E+07 RLU | superior gene expression activity | 
8 | CCCCCCCC/C=C\CCCCCCCC(=O)OCC(C)(COC(=O)CCCCCCC/C=C\CCCCCCCC)C(=O)Oc1ccc(CC(=O)OCCSSCCOC(=O)NCCN(C)CCO)cc1 [Example 36] | 7.3 | 0.19 | 9.67E+05 photons/sec | 6.33E+05 photons/sec | 2.33E+06 photons/sec | 8.67E+05 photons/sec | 2.00E+06 photons/sec | 0.090 | 92 nm | −2.5 mV | 7.66E+07 RLU | superior gene expression activity | 
